# Laboratory results reported in patent US6737383B1, “Herbicidal oxadiazolidines” (priority 1999, dated 2004).
# What was measured:
# [1] = system: bedstraw; test: Test B pre/postemergence bedstraw; type: in vivo, Galium aparine; settings: Preemergence
# Procedure, shortened: (§1)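 Response is a visual 0-to-10 score relative to untreated plants, where 0 means no effect and 10 means complete control, taken twelve to sixteen days after application. Treatments went onto soil at planting and onto foliage of 1- to 4-leaf plants, using a surfactant-containing non-phytotoxic solvent.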
# [2] = system: blackgrass; test: Test B pre/postemergence blackgrass; type: in vivo, Alopecurus myosuroides
# Procedure, shortened: as §1
# [3] = system: surinam grass; test: Test B pre/postemergence surinam grass; type: in vivo, Brachiaria decumbens
# Procedure, shortened: as §1
# [4] = system: cocklebur; test: Test B pre/postemergence cocklebur; type: in vivo, Xanthium strumarium
# Procedure, shortened: as §1
# [5] = system: corn; test: Test B pre/postemergence corn; type: in vivo, Zea mays
# Procedure, shortened: as §1
# [6] = system: crabgrass; test: Test B pre/postemergence crabgrass; type: in vivo, Digitaria sanguinalis
# Procedure, shortened: as §1
# [7] = system: morningglory; test: Test B pre/postemergence morningglory; type: in vivo, Ipomoea hederacea
# Procedure, shortened: as §1
# [8] = system: pigweed; test: Test B pre/postemergence pigweed; type: in vivo, Amaranthus retroflexus
# Procedure, shortened: as §1
# [9] = system: rape; test: Test B pre/postemergence rape; type: in vivo, Brassica napus
# Procedure, shortened: as §1
# [10] = system: sugar beet; test: Test B pre/postemergence sugar beet; type: in vivo, Beta vulgaris
# Procedure, shortened: as §1
# [11] = system: velvetleaf; test: Test B pre/postemergence velvetleaf; type: in vivo, Abutilon theophrasti
# Procedure, shortened: as §1
# [12] = system: wheat; test: Test B pre/postemergence wheat; type: in vivo, Triticum aestivum
# Procedure, shortened: as §1
# [13] = system: wild oat; test: Test B pre/postemergence wild oat; type: in vivo, Avena fatua
# Procedure, shortened: as §1
# [14] = system: purple nutsedge; test: Test B pre/postemergence purple nutsedge; type: in vivo, Cyperus rotundus
# Procedure, shortened: as §1
# [15] = system: smallflower flatsedge; test: Test B flood test smallflower flatsedge; type: in vivo, Cyperus difformis
# Procedure, shortened: (§2)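 Read-out is a visual response score from 0 (no effect) to 10 (complete control), assigned by comparison with untreated controls. Treatment was applied at the 2-leaf stage, and plants stayed in the greenhouse for twelve to sixteen days before scoring.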
# [16] = system: duck salad; test: Test B flood test duck salad; type: in vivo, Heteranthera limosa
# Procedure, shortened: as §2
# [17] = Postemergence, Rate 125 g/ha, scale 0 to 10, 0 is no effect, 10 is complete control
# [18] = Postemergence, Rate 250 g/ha, scale 0 to 10, 0 is no effect, 10 is complete control
# [19] = Postemergence, Rate 500 g/ha, scale of 0 to 10 where 0 is no effect and 10 is complete control
# [20] = Preemergence, Rate 62 g/ha, scale 0 to 10 (0 no effect, 10 complete control)
# [21] = Preemergence, Rate 125 g/ha, scale of 0 to 10 where 0 is no effect and 10 is complete control
# [22] = Preemergence, Rate 250 g/ha, scale of 0 to 10 where 0 is no effect and 10 is complete control
# [23] = Preemergence, Rate 500 g/ha, scale 0 to 10, 0 is no effect, 10 is complete control
# [24] = Rate 62 g/ha, Postemergence, scale of 0 to 10 where 0 is no effect and 10 is complete control
# [25] = Preemergence, Rate 250 g/ha, scale 0 to 10, 0 is no effect, 10 is complete control
# [26] = Rate 62 g/ha, flood test species, Pre-emergence, visual evaluation after twelve to sixteen days
# [27] = Rate 125 g/ha, under heading Pre-emergence, flood test species, visual evaluation after twelve to sixteen days
# [28] = Rate 250 g/ha, Pre-emergence, flood-test species, scale 0 to 10, 0 is no effect, 10 is complete control
# [29] = Rate 500 g/ha, Pre-emergence, flood test species, scale 0 to 10 (0 no effect, 10 complete control)
smiles,measurement,setting,value
Cc1nc(Cl)sc1C(C)n1c(=O)on(C(=O)N(c2ccccc2)C(C)C)c1=O (stereo not shown) [Compound 407],"Plant response rating, Bedstraw","[1]; Rate 62 g/ha, scale 0 to 10 (0 no effect, 10 complete control)",0
same,"Plant response rating, Bedstraw","[1]; Rate 125 g/ha, scale of 0 to 10 where 0 is no effect and 10 is complete control",0
same,Bedstraw plant response rating,"[1]; Rate 250 g/ha, scale of 0 to 10 where 0 is no effect and 10 is complete control",0
same,Bedstraw plant response rating,"[1]; Rate 500 g/ha, scale 0 to 10, 0 is no effect, 10 is complete control",0
same,"Plant response rating, Blackgrass",[2]; [17],0
same,"Plant response rating, Blackgrass",[2]; [18],0
same,Blackgrass plant response rating,[2]; [19],7
same,"Plant response rating, Blackgrass",[2]; [20],0
same,"Plant response rating, Blackgrass",[2]; [21],0
same,Blackgrass plant response rating,[2]; [22],0
same,Blackgrass plant response rating,[2]; [23],0
same,Blackgrass plant response rating,[2]; [24],0
same,"Plant response rating, B. signalgrass",[3]; [17],0
same,"Plant response rating, B. signalgrass",[3]; [18],0
same,B. signalgrass plant response rating,[3]; [19],0
same,"Plant response rating, B. signalgrass",[3]; [20],0
same,"Plant response rating, B. signalgrass",[3]; [21],0
same,B. signalgrass plant response rating,[3]; [22],0
same,B. signalgrass plant response rating,"[3]; Preemergence, Rate 500 g/ha, scale of 0 to 10 where 0 is no effect and 10 is complete control",0
same,B. signalgrass plant response rating,[3]; [24],0
same,"Plant response rating, Cocklebur",[4]; [17],0
same,"Plant response rating, Cocklebur",[4]; [18],0
same,Cocklebur plant response rating,[4]; [19],0
same,"Plant response rating, Cocklebur",[4]; [20],0
same,"Plant response rating, Cocklebur",[4]; [21],0
same,Cocklebur plant response rating,[4]; [25],0
same,Cocklebur plant response rating,[4]; [23],0
same,Cocklebur plant response rating,[4]; [24],0
same,"Plant response rating, Corn",[5]; [17],0
same,"Plant response rating, Corn",[5]; [18],0
same,Corn plant response rating,[5]; [19],0
same,"Plant response rating, Corn",[5]; [20],0
same,"Plant response rating, Corn",[5]; [21],0
same,Corn plant response rating,[5]; [25],0
same,Corn plant response rating,[5]; [23],0
same,Corn plant response rating,[5]; [24],0
same,"Plant response rating, Crabgrass",[6]; [17],0
same,"Plant response rating, Crabgrass",[6]; [18],1
same,Crabgrass plant response rating,[6]; [19],3
same,"Plant response rating, Crabgrass",[6]; [20],0
same,"Plant response rating, Crabgrass",[6]; [21],2
same,Crabgrass plant response rating,[6]; [25],5
same,Crabgrass plant response rating,[6]; [23],9
same,Crabgrass plant response rating,[6]; [24],0
same,"Plant response rating, Morningglory",[7]; [18],10
same,Morningglory plant response rating,[7]; [19],10
same,"Plant response rating, Morningglory",[7]; [20],0
same,"Plant response rating, Morningglory",[7]; [21],0
same,Morningglory plant response rating,[7]; [25],0
same,Morningglory plant response rating,[7]; [23],0
same,"Plant response rating, Redroot pigweed",[8]; [18],0
same,Redroot pigweed plant response rating,[8]; [19],0
same,"Plant response rating, Redroot pigweed",[8]; [20],0
same,"Plant response rating, Redroot pigweed",[8]; [21],0
same,Redroot pigweed plant response rating,[8]; [25],0
same,Redroot pigweed plant response rating,[8]; [23],0
same,"Plant response rating, Rape",[9]; [18],0
same,"Plant response rating, Rape",[9]; [20],0
same,"Plant response rating, Rape",[9]; [21],0
same,Rape plant response rating,[9]; [25],0
same,Rape plant response rating,[9]; [23],0
same,"Plant response rating, Sugarbeets",[10]; [18],0
same,Sugarbeets plant response rating,[10]; [19],0
same,"Plant response rating, Sugarbeets",[10]; [20],0
same,"Plant response rating, Sugarbeets",[10]; [21],0
same,Sugarbeets plant response rating,[10]; [25],0
same,Sugarbeets plant response rating,[10]; [23],0
same,"Plant response rating, Velvetleaf",[11]; [18],0
same,Velvetleaf plant response rating,[11]; [19],2
same,"Plant response rating, Velvetleaf",[11]; [20],0
same,"Plant response rating, Velvetleaf",[11]; [21],0
same,Velvetleaf plant response rating,[11]; [25],0
same,Velvetleaf plant response rating,[11]; [23],0
same,Wheat plant response rating,[12]; [19],0
same,"Plant response rating, Wheat",[12]; [20],0
same,"Plant response rating, Wheat",[12]; [21],0
same,Wheat plant response rating,[12]; [25],0
same,Wheat plant response rating,[12]; [23],0
same,Wild oats plant response rating,[13]; [19],0
same,"Plant response rating, Wild oats",[13]; [20],0
same,"Plant response rating, Wild oats",[13]; [21],0
same,Wild oats plant response rating,[13]; [25],0
same,Wild oats plant response rating,[13]; [23],0
same,"Plant response rating, Nutsedge",[14]; [18],0
same,Nutsedge plant response rating,[14]; [19],0
same,"Plant response rating, Nutsedge",[14]; [20],0
same,"Plant response rating, Nutsedge",[14]; [21],0
same,Nutsedge plant response rating,[14]; [25],0
same,Nutsedge plant response rating,[14]; [23],0
same,"Plant response rating, S. Flatsedge (0 to 10 scale, 0 is no effect, 10 is complete control)",[15]; [26],0
same,"S. Flatsedge plant response rating (0 to 10 scale, 0 is no effect, 10 is complete control)",[15]; [27],0
same,S. Flatsedge plant response rating,[15]; [28],0
same,S. Flatsedge plant response rating,[15]; [29],0
same,"Plant response rating, Ducksalad (0 to 10 scale, 0 is no effect, 10 is complete control)",[16]; [26],0
same,"Ducksalad plant response rating (0 to 10 scale, 0 is no effect, 10 is complete control)",[16]; [27],0
same,Ducksalad plant response rating,[16]; [28],0
same,Ducksalad plant response rating,[16]; [29],0
